In brackets after ≈: the same amount, converted by molar mass. Where a name gives a salt, the structure may show the parent alone. Read-outs that look alike come from different tables or passages of the source. Marks after values point to notes of the source that are not given here.
Assays:
E. coli SKM18 = assay: microbe, parasite or virus in culture; assay type: cell-based, Escherichia coli; details: for MIC E. coli^R1: E. coli SKM18
A. baumannii MMX2240 = assay: MIC, fluoroquinolone resistant A. baumannii; assay type: cell-based, Acinetobacter baumannii
[1] = tested on: Klebsiella pneumoniae ATCC 35657; assay: MIC, wild-type K. pneumoniae; assay type: cell-based; details: K. pneumoniae ATCC 35657
E. coli ATCC 25922 = assay: MIC, wild-type E. coli ATCC 25922; assay type: cell-based, Escherichia coli; details: for increase in MIC values against the wild-type E. coli strain compared to the permeable strain: E. coli^WT vs E. coli^P; for MIC: Escherichia coli
[2] = tested on: Acinetobacter baumannii ATCC BAA-747; assay: MIC, wild-type A. baumannii; assay type: cell-based; details: A. baumannii ATCC BAA-747
E. coli^WT (ATCC 25922) [3] = tested on: E. coli^WT (ATCC 25922); set-up: method as in PMID 29032026; details: cited from earlier work
[4] = tested on: panel of 12 E. coli isolates; set-up: method as in PMID 29032026; details: abbreviated panel of E. coli strains; cited from earlier work
E. coli^WT = assay: Time-kill kinetics, E. coli
A. baumannii^WT = assay: Time-kill kinetics, A. baumannii
E. coli DNA gyrase = E. coli DNA gyrase (Escherichia coli, UniProt P0AES4+P0AES6); assay: biochemical
human topoisomerase II = human topoisomerase II (Homo sapiens, UniProt P11388); assay: Human topoisomerase II decatenation assay; assay type: biochemical; details: Supplemental Table 1; read-out: Human Topo II IC50
Chain of human topoisomerase II (P11388 whole entry): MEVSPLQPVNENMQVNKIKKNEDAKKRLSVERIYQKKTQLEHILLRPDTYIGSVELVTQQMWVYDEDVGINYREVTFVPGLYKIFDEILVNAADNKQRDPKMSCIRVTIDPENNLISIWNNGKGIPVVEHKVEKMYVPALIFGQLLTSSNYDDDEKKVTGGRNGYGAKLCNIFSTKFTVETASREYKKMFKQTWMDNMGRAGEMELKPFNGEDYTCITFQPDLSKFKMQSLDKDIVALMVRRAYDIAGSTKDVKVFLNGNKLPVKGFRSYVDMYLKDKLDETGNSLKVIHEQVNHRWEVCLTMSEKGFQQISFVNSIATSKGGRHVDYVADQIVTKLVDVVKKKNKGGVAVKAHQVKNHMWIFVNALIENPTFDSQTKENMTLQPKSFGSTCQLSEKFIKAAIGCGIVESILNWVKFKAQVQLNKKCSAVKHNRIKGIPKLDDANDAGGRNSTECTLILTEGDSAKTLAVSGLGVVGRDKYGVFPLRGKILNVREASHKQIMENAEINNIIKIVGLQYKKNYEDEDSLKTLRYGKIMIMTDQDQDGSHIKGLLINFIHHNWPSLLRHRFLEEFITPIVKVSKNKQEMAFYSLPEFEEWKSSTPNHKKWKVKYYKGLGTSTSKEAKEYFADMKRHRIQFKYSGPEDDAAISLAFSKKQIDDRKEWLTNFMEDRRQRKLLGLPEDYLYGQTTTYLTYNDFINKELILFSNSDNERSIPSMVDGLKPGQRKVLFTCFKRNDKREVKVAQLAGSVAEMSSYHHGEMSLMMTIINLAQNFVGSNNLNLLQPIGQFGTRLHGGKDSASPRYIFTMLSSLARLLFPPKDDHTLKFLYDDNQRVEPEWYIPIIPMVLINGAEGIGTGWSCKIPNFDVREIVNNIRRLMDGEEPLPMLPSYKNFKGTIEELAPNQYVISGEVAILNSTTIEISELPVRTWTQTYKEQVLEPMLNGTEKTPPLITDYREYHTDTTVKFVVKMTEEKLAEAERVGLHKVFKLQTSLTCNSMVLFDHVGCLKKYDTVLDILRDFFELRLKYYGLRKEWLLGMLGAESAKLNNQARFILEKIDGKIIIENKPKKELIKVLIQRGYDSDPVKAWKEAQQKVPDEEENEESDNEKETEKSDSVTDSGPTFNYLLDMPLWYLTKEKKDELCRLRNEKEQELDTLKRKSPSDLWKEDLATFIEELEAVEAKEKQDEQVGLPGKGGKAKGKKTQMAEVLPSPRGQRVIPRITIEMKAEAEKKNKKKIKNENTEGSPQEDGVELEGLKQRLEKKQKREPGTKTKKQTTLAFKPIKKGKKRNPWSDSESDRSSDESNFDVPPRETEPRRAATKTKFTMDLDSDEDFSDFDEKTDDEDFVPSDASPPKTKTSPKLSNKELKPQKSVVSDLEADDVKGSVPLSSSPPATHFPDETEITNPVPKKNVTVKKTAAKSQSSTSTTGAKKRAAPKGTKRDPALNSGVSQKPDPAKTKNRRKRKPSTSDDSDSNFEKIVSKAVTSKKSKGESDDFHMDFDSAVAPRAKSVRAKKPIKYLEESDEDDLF

[5] = Pharmacokinetics in CD-1 mice; details: CD-1, mouse, plasma, iv, 10 mg/kg
E. coli^WT (ATCC 25922) [6] = assay: Mouse septicemia model; assay type: in vivo, CD-1 mice; details: 96 h; for responders at 20 mg/kg: Mus musculus, iv, read-out: survival
[7] = tested on: panel of 12 A. baumannii isolates; assay: Susceptibility testing, 12 A. baumannii isolates; assay type: cell-based, Acinetobacter baumannii
[8] = tested on: panel of 12 E. coli isolates; assay: Susceptibility testing, 12 E. coli isolates; assay type: cell-based, Escherichia coli
[9] = biological target: E. coli DNA gyrase^SD-LY (GyrA S83L, D87Y) (Escherichia coli, UniProt P0AES4+P0AES6, D87Y/S83L); assay type: biochemical; details: IC50 ratio
E. coli SKM11 = assay type: cell-based, Escherichia coli
E. coli 1609 = assay: MIC, wild-type E. coli 1609; assay type: cell-based; details: Escherichia coli, read-out: MIC E. coli^WT2
in vivo = details: CD-1, mouse, iv, 3 mg/kg
[10] = E. coli enzymatic activity, DNA gyrase IC50
[11] = ATCC25922, read-out: MIC E. coli^WT, E. coli ATCC 25922

10-((sec-Butylamino)methyl)-4-hydroxy-9-methyl-2-oxo-1,2,5,6,7,9-hexahydropyrido[3′,2′:6,7]cyclohepta[1,2-f]indole-3-carboxylic Acid Hydrochloride [Compound 6n]
MIC E. coli^R1 (E. coli SKM18): 0.78 µg/mL | MIC A. bau^R (A. baumannii MMX2240): 0.50 µg/mL | MIC K. pneu^WT [1]: 0.50 µg/mL | MIC E. coli^WT (E. coli ATCC 25922; E. coli ATCC 25922): 0.78 µg/mL | MIC A. bau^WT [2]: 0.78 µg/mL

CCc1c(-c2ccc(N3C[C@@H]4[C@@H](N)[C@@H]4C3)cc2)[nH]c(=O)c(C(=O)O)c1O [Compound 1b]
efficacy in a murine septicemia model (E. coli^WT (ATCC 25922) [3]): demonstrated efficacy | MIC90 E. coli [4]: 8 µg/mL (≈ 22.5 µM)

CCc1c(-c2ccc3c(ccn3C)c2)[nH]c(=O)c(C(=O)O)c1O [Compound 2a, 5-Ethyl-4-hydroxy-6-(1-methyl-1H-indol-5-yl)-2-oxo-1,2-dihydropyridine-3-carboxylic Acid]
increase in MIC values against the wild-type E. coli strain compared to the permeable strain (E. coli ATCC 25922): greater than 25 fold

CCc1c(-c2ccc3c(c2)cc(C)n3C)[nH]c(=O)c(C(=O)O)c1O [Compound 2b, 6-(1,2-Dimethyl-1H-indol-5-yl)-5-ethyl-4-hydroxy-2-oxo-1,2-dihydropyridine-3-carboxylic Acid]
increase in MIC values against the wild-type E. coli strain compared to the permeable strain (E. coli ATCC 25922): greater than 25 fold

CCc1c(-c2ccc3c(c2)cc(CN2CCC2)n3C)[nH]c(=O)c(C(=O)O)c1O [Compound 2m, 6-(2-(Azetidin-1-ylmethyl)-1-methyl-1H-indol-5-yl)-5-ethyl-4-hydroxy-2-oxo-1,2-dihydropyridine-3-carboxylic Acid Hydrochloride]
mode of bacterial inhibition (time–kill kinetics) (E. coli^WT; E. coli^WT, several concentrations): concentration-dependent bactericidal activity | reduction in the number of CFUs (E. coli^WT; concentrations above the MIC, within ∼2 h): more than 3 log10 units | mode of bacterial inhibition (time–kill kinetics) (A. baumannii^WT; A. baumannii^WT, several concentrations): concentration-dependent bactericidal activity | reduction in the number of CFUs (A. baumannii^WT; above 2-fold of the MIC, within ∼2 h): ~2 log10 units

CNCc1cc2cc3c(cc2n1C)CCc1c-3[nH]c(=O)c(C(=O)O)c1O.Cl [Compound 5a]
MIC (E. coli SKM18; Escherichia coli, SKM18, read-out: MIC E. coli^R1, E. coli SKM18): 7.8 µg/mL | IC50 (E. coli DNA gyrase; [10]): 900 nM | MIC (E. coli ATCC 25922; [11]): 7.8 µg/mL

CCNCc1cc2cc3c(cc2n1C)CCCc1c-3[nH]c(=O)c(C(=O)O)c1O [Compound 6a, 10-((Ethylamino)methyl)-4-hydroxy-9-methyl-2-oxo-1,2,5,6,7,9-hexahydropyrido[3′,2′:6,7]cyclohepta[1,2-f]indole-3-carboxylic Acid Hydrochloride]
IC50 (human topoisomerase II): > 100000 nM | IC50 (E. coli DNA gyrase; E. coli DNA gyrase IC50, gyrase^WT): 560 nM | IC50 (E. coli DNA gyrase; [10]): 100 nM

CCNCc1cc2cc3c(cc2n1C)NCCc1c-3[nH]c(=O)c(C(=O)O)c1O [Compound 6g]
MIC (E. coli ATCC 25922; [11]): 7.8 to 31.3 µg/mL (≈ 20.4 to 81.8 µM)

CC(C)NCc1cc2cc3c(cc2n1C)CCCc1c-3[nH]c(=O)c(C(=O)O)c1O [Compound 6i, 4-Hydroxy-10-((isopropylamino)methyl)-9-methyl-2-oxo-1,2,5,6,7,9-hexahydropyrido[3′,2′:6,7]cyclohepta[1,2-f]indole-3-carboxylic Acid Hydrochloride]
IC50 (human topoisomerase II): > 100000 nM | AUC(0-t) at 24 h ([5]; pH 8): 1810 ng·h/mL | clearance ([5]; pH 8): 64 mL/min/kg | IC50 (E. coli DNA gyrase; E. coli DNA gyrase IC50): 2700 nM

CC(C)NCc1cc2cc3c(cc2n1C)NCCc1c-3[nH]c(=O)c(C(=O)O)c1O [Compound 6l]
MIC (E. coli ATCC 25922; [11]): 7.8 to 31.3 µg/mL (≈ 19.7 to 79 µM)

Cn1c(CNC2(C)CCC2)cc2cc3c(cc21)CCCc1c-3[nH]c(=O)c(C(=O)O)c1O [Compound 6p, 4-Hydroxy-9-methyl-10-(((1-methylcyclobutyl)amino)methyl)-2-oxo-1,2,5,6,7,9-hexahydropyrido[3′,2′:6,7]cyclohepta[1,2-f]indole-3-carboxylic Acid Hydrochloride]
responders at 20 mg/kg (E. coli^WT (ATCC 25922) [6]): 0% | AUC(0-t) at 24 h ([5]; pH 4): 4580 ng·h/mL | clearance ([5]; pH 4): 35 mL/min/kg

Cn1c(CNC2(C)CCC2)cc2cc3c(cc21)OCCc1c-3[nH]c(=O)c(C(=O)O)c1O [Compound 6q, 4-Hydroxy-9-methyl-10-(((1-methylcyclobutyl)amino)methyl)-2-oxo-2,5,6,9-tetrahydro-1H-pyrido[2′,3′:4,5]oxepino[3,2-f]indole-3-carboxylic Acid Hydrochloride]
IC50 (human topoisomerase II): > 100000 nM | MIC ([7]; Acinetobacter baumannii, read-out: A. baumannii MIC range): 0.06 to 16 µg/mL | AUC(0-t) at 24 h ([5]; pH 8): 4420 ng·h/mL | clearance ([5]; pH 8): 37 mL/min/kg | IC50 (E. coli DNA gyrase; E. coli DNA gyrase IC50): 730 nM

CN(C)Cc1cc2cc3c(cc2n1C)CCCc1c-3[nH]c(=O)c(C(=O)O)c1O [Compound 6r, 10-((Dimethylamino)methyl)-4-hydroxy-9-methyl-2-oxo-1,2,5,6,7,9-hexahydropyrido[3′,2′:6,7]cyclohepta[1,2-f]indole-3-carboxylic Acid Hydrochloride]
IC50 (human topoisomerase II): > 100000 nM | responders at 20 mg/kg (E. coli^WT (ATCC 25922) [6]): 100% | AUC(0-t) at 24 h ([5]; pH 8): 3520 ng·h/mL | clearance ([5]; pH 8): 47 mL/min/kg | IC50 (E. coli DNA gyrase; E. coli DNA gyrase IC50): 410 nM

CN(C)Cc1cc2cc3c(cc2n1C)OCCc1c-3[nH]c(=O)c(C(=O)O)c1O [Compound 6s, 10-((Dimethylamino)methyl)-4-hydroxy-9-methyl-2-oxo-2,5,6,9-tetrahydro-1H-pyrido[2′,3′:4,5]oxepino[3,2-f]indole-3-carboxylic Acid Hydrochloride]
IC50 (human topoisomerase II): > 100000 nM | responders at 20 mg/kg (E. coli^WT (ATCC 25922) [6]): 100% | AUC(0-t) at 24 h ([5]; pH 4): 2930 ng·h/mL | clearance ([5]; pH 4): 53 mL/min/kg | IC50 (E. coli DNA gyrase; E. coli DNA gyrase IC50): 490 nM

Cn1c(CN2CCCC2)cc2cc3c(cc21)CCCc1c-3[nH]c(=O)c(C(=O)O)c1O [Compound 6v, 4-Hydroxy-9-methyl-2-oxo-10-(pyrrolidin-1-ylmethyl)-1,2,5,6,7,9-hexahydropyrido[3′,2′:6,7]cyclohepta[1,2-f]indole-3-carboxylic Acid Hydrochloride]
IC50 (human topoisomerase II): > 100000 nM | responders at 20 mg/kg (E. coli^WT (ATCC 25922) [6]): 100% | MIC90 ([7]; Acinetobacter baumannii, read-out: A. baumannii MIC90, 12 strains, Mueller Hinton II broth): 8 to 16 µg/mL | AUC(0-t) at 24 h ([5]; pH 8): 4050 ng·h/mL | clearance ([5]; pH 8): 41 mL/min/kg | IC50 (E. coli DNA gyrase; E. coli DNA gyrase IC50): 210 nM | E. coli MIC90 ([8]; 12 strains, Mueller Hinton II broth): 1 µg/mL | MIC90 ([8]; Escherichia coli, read-out: E. coli MIC90, 12 strains, Mueller Hinton II broth): 0.5 to 1 µg/mL

Cn1c(CN2CCCC2)cc2cc3c(cc21)OCCc1c-3[nH]c(=O)c(C(=O)O)c1O [Compound 6w, 4-Hydroxy-9-methyl-2-oxo-10-(pyrrolidin-1-ylmethyl)-2,5,6,9-tetrahydro-1H-pyrido[2′,3′:4,5]oxepino[3,2-f]indole-3-carboxylic Acid Hydrochloride]
IC50 (human topoisomerase II): > 100000 nM | IC50 (E. coli DNA gyrase; E. coli DNA gyrase IC50): 280 nM

CO/N=C(\C(=O)N[C@@H]1C(=O)N2C(C(=O)[O-])=C(C[N+]3(C)CCCC3)CS[C@H]12)c1csc(N)n1 [cefepime, reference compound]
MIC E. coli^R1 (E. coli SKM18): 0.05 µg/mL (≈ 0.104 µM) | MIC A. bau^R (A. baumannii MMX2240): 0.78 µg/mL (≈ 1.62 µM) | MIC K. pneu^WT [1]: 0.02 µg/mL (≈ 0.0416 µM) | MIC E. coli^WT (E. coli ATCC 25922; E. coli ATCC 25922): 0.05 µg/mL (≈ 0.104 µM) | MIC A. bau^WT [2]: 0.78 µg/mL (≈ 1.62 µM)

O=C(O)c1cn(C2CC2)c2cc(N3CCNCC3)c(F)cc2c1=O [ciprofloxacin]
MIC E. coli^R1 (E. coli SKM18): > 250 µg/mL | increase in MIC against E. coli^R1 (E. coli SKM18; additional Topo IV mutations, vs E. coli^R3): ~250 fold | reduction in activity against DNA gyrase^SD-LY compared to DNA gyrase^WT [9]: greater than 13 fold | increase in MIC against E. coli^R3 (E. coli SKM11): 32 fold | MIC (E. coli 1609): 0.024 µg/mL (≈ 0.0724 µM) | MIC (E. coli ATCC 25922; ATCC25922, E. coli ATCC 25922, read-out: MIC E. coli^WT): 0.012 µg/mL (≈ 0.0362 µM)

C[C@H]1COc2c(N3CCN(C)CC3)c(F)cc3c(=O)c(C(=O)O)cn1c23.C[C@H]1COc2c(N3CCN(C)CC3)c(F)cc3c(=O)c(C(=O)O)cn1c23.O [levofloxacin, reference compound]
A. baumannii MIC range ([7]; 12 strains): 0.06 to 64 µg/mL | E. coli MIC range ([8]; 12 strains): 0.015 to 32 µg/mL

COc1c(N2C[C@@H]3CCCN[C@@H]3C2)c(F)cc2c(=O)c(C(=O)O)cn(C3CC3)c12 [moxifloxacin, reference compound]
survival (E. coli^WT (ATCC 25922) [6]; neutropenic mice, E. coli^WT 100 × LD50, 3 mg/kg at 1 and 5 h postinfection (b.i.d.)): 100 ^n % | AUC(0-t) at 24 h (in vivo): 640 ng·h/mL

CN(C)c1cc(NC(=O)CNC(C)(C)C)c(O)c2c1C[C@H]1C[C@H]3[C@H](N(C)C)C(O)=C(C(N)=O)C(=O)[C@@]3(O)C(O)=C1C2=O [tigecycline, reference compound]
MIC E. coli^R1 (E. coli SKM18): 0.25 µg/mL (≈ 0.427 µM) | MIC A. bau^R (A. baumannii MMX2240): 0.78 µg/mL (≈ 1.33 µM) | MIC K. pneu^WT [1]: 0.13 µg/mL (≈ 0.222 µM) | MIC E. coli^WT (E. coli ATCC 25922; E. coli ATCC 25922): 0.13 µg/mL (≈ 0.222 µM) | MIC A. bau^WT [2]: 0.78 µg/mL (≈ 1.33 µM)
